Here are results for 37 compounds from patent US10336735B2, “Small molecule inhibitors of fibrosis” (THE CALIFORNIA INSTITUTE FOR BIOMEDICAL RESEARCH, priority 2014, dated 2019).

As usually defined, the EC50 is the midpoint of the concentration-response curve. Higher therefore signals a less potent agent.

The subject of one assay is primary human lung fibroblasts and primary rodent HSCs. The assay is described as follows: High content imaging assay (α-SMA staining, cell morphology) of fibroblast to myofibroblast transdifferentiation, confirmed by Western blot and RT-PCR. The settings on record: Homo sapiens, Fibroblast; imaging and western based activity. From the text:
High content imaging assays have been established, using primary human lung fibroblasts and primary rodent HSCs, that enable the identification of small molecules that either inhibit myofibroblast formation/activation or induce the reversion of activated myofibroblasts to a quiescent fibroblast state. Conditions, involving serum starvation and subsequent TGF-β treatment, have been identified that facilitate robust in vitro transdifferentiation in a miniaturized (384 well plate) format that is amenable to high throughput small molecule screening. The inhibition assay is based on α-SMA immunofluorescent staining and cell morphology changes associated with fibroblast to myofibroblast transdifferentiation, Using the selective ALK-5 TGF-β1 receptor inhibitor ([…]) as a positive control, the inhibition assay has been used to initiate a screen of a collection of ˜100,000 small molecules that consists of bioactive small molecules and a diversity set that has been assembled based on 2D and 3D structural diversity and inherent “drug-likeness” properties. Preliminary screening led to the identification of multiple previously identified anti-fibrotic molecules.
A high content imaging assay, based on α-SMA staining and cell morphological changes associated with fibroblast to myofibroblast transdifferentiation, was established using primary human lung fibroblasts and primary rodent HSCs. Conditions, involving serum starvation and subsequent TGF-β treatment, were identified that facilitate robust in vitro transdifferentiation in a miniaturized (384 well plate) format that is amenable to high throughput small molecule screening. A selective ALK-5 TGF-β1 receptor inhibitor (SB-431542) was used as a positive control. […] This assay was used to evaluate compounds of Formula (I), (Ia), (II), (IIa), (III), (IIIa), (IV), (IVa), (IVb), (V), (Va), (VI), (VIa), (VIb), (VIc), (VII), (VIIa), (VIII), (VIIIa), (IX), (IXa), (X), or (Xa) generated from medicinal chemistry efforts.
The activity of Itraconazole and compounds of Formula (I), (Ia), (II), (IIa), (III), (IIIa), (IV), (IVa), (IVb), (V), (Va), (VI), (VIa), (VIb), (VIc), (VII), (VIIa), (VIII), (VIIIa), (IX), (IXa), (X), or (Xa) was confirmed by analyzing changes in gene expression of multiple genes associated with fibroblast to myofibroblast transdifferentiation using biochemical methods (i.e., Western blot and RT-PCR). These 4-day assays were used to evaluate sets of 6 compounds at a time in 4-point dose response fashion.
The EC50 for (imaging and western based) activity is graded as: +++=<500 nM; ++=500 nM to 5 μM; +=5 to 30 μM); −=>30 μM; NT=Not Tested.
(In general: In western blotting, separated proteins are transferred to a membrane and probed.)
Compound `CCC(C)n1ncn(-c2ccc(N3CCN(c4ccc(OC[C@@H]5CO[C@@](Cn6nccn6)(c6ccc(Cl)cc6Cl)O5)c(C#N)c4)CC3)cc2)c1=O` (stereo partly shown) [Compound 57] showed an EC50 of less than 0.5 µM.

`CCC(C)n1ncn(-c2ccc(N3CCN(c4ccc(OC[C@@H]5CO[C@@](Cn6nccn6)(c6ccccc6)O5)c(F)c4F)CC3)cc2)c1=O` (stereo partly shown) [Compound 63] displayed an EC50 of 5 to 30 µM.

Compound `CCC(C)n1ncn(-c2ccc(N3CCN(c4ccc(OC[C@@H]5CO[C@@](Cc6ccnnc6)(c6ccc(OC)cc6)O5)cc4)CC3)cc2)c1=O` (stereo partly shown) [Compound 129] gave an EC50 of less than 0.5 µM.

As to `CCC(C)n1ncn(-c2ccc(N3CCN(C[C@@H]4CO[C@@](Cn5nccn5)(c5ccc(Cl)cc5Cl)O4)CC3)cc2)c1=O` (stereo partly shown) [Compound 7], the EC50 is greater than 30 µM.

With `CCC(C)n1ncn(-c2ccc(N3CCN(c4ccc(OC[C@@H]5CO[C@@](Cn6cccn6)(c6ccc(C#N)cc6C)O5)cc4)CC3)cc2)c1=O` (stereo partly shown) [Compound 51], the EC50 was less than 0.5 µM.

For `CCC(C)n1ncn(-c2ccc(N3CCN(c4ccc(OC[C@@H]5CO[C@@](Cn6nccn6)(c6ccccc6)O5)cc4CN)CC3)cc2)c1=O` (stereo partly shown) [Compound 67], the EC50 lay in the range of 0.5 to 5 µM.

`CCC(C)n1ncn(-c2ccc(N3CCN(c4ccc(OC[C@@H]5CO[C@@](Cn6cccn6)(c6ccc(C(N)=O)cc6)O5)cc4)CC3)cc2)c1=O` (stereo partly shown) [Compound 100] gave an EC50 of 0.5 to 5 µM.

The compound `CCC(CC)n1ncn(-c2ccc(N3CCN(c4ccc(OC[C@H]5CO[C@](Cn6cccn6)(c6ccc(C#N)cc6C)O5)cc4)CC3)cc2)c1=O` [Compound 177] registered an EC50 of 0.5 to 5 µM.

Turning to `CCC(C)n1ncn(-c2ccc(N3CCN(c4ccc(OCCO[C@@H](Cn5nccn5)c5ccccc5)cc4)CC3)cc2)c1=O` (stereo partly shown) [Compound 141], the EC50 is greater than 30 µM.

With `CCC(C)n1ncn(-c2ccc(N3CCN(c4ccc(OC[C@@H]5CO[C@@](Cn6nccn6)(c6ccc(Cl)cc6Cl)O5)cc4)CC3)cc2F)c1=O` (stereo partly shown) [Compound 70], the EC50 fell in the range of 0.5 to 5 µM.

Consider `CCC(C)n1ncn(-c2ccc(N3CCN(c4ccc(OC[C@@H]5CO[C@@](Cn6cccn6)(c6cccc(C(F)(F)F)c6)O5)cc4)CC3)cc2)c1=O` (stereo partly shown) [Compound 92], for which the EC50 is less than 0.5 µM.

In turn, `CCC(C)n1ncn(-c2ccc(N3CCN(c4ccc(OC[C@@H]5CO[C@@](Cn6nccn6)(c6ccc(Cl)cc6Cl)O5)cn4)CC3)cc2)c1=O` (stereo partly shown) [Compound 53] displayed an EC50 of 0.5 to 5 µM.

With `CCC(C)n1ncn(-c2ccc(N3CCN(c4ccc(OC[C@H]5CO[C@](Cn6nccn6)(c6ccccc6)C5)cc4)CC3)cc2)c1=O` (stereo partly shown) [Compound 147], the concentration for a half-maximal effect (EC50) was greater than 30 µM.

Compound `CCC(C)n1ncn(-c2ccc(N3CCN(c4ccc(OC[C@@H]5CO[C@@](Cn6nccn6)(c6ccccc6)O5)cc4C(F)(F)F)CC3)cc2)c1=O` (stereo partly shown) [Compound 60] gave an EC50 of 5 to 30 µM.

The compound `CCC(C)n1ncn(-c2ccc(N3CCN(c4ccc(OC[C@H]5CO[C@](Cn6nccn6)(c6ccccc6)O5)cc4)CC3)cc2)c1=O` (stereo partly shown) [Compound 181] had a concentration giving a half-maximal response (EC50) of less than 0.5 µM.

`CCC(C)n1ncn(-c2cccc(N3CCN(c4ccc(OC[C@@H]5CO[C@@](Cn6nccn6)(c6ccc(Cl)cc6Cl)O5)cc4)CC3)c2)c1=O` (stereo partly shown) [Compound 77] yielded an EC50 greater than 30 µM.

On to `CCC(C)n1ncn(-c2ccc(N3CCN(c4ccc(OC[C@@H]5CO[C@@](Cn6cccn6)(c6ccccc6C(N)=O)O5)cc4)CC3)cc2)c1=O` (stereo partly shown) [Compound 101], for which the EC50 was 5 to 30 µM.

In turn, `O=c1n(-c2ccc(N3CCN(c4ccc(OC[C@@H]5CO[C@@](Cn6nccn6)(c6ccccc6)O5)cc4)CC3)cc2)cnn1CC1CCNCC1` [Compound 15] showed an EC50 of 5 to 30 µM.

`CCC(CC)n1ncn(-c2ccc(N3CCN(c4ccc(OC[C@H]5CO[C@](Cn6nccn6)(c6ccc(Cl)cc6Cl)O5)cc4F)CC3)cc2)c1=O` [Compound 165] displayed a half-maximal effective concentration (EC50) of less than 0.5 µM.

`CCC(C)n1ncn(-c2ccc(N3CCN(c4ccc(OC[C@@H]5CO[C@@](Cn6cccn6)(c6ccccc6C)O5)cc4)CC3)cc2)c1=O` (stereo partly shown) [Compound 95] yielded an EC50 of less than 0.5 µM.

As to `CCC(C)n1ncn(-c2ccc(N3CCN(c4ccc(OC[C@@H]5CO[C@@](Cn6nccn6)(c6ccc(Br)cc6Br)O5)cc4)CC3)cc2)c1=O` (stereo partly shown) [Compound 30], the concentration for a half-maximal effect (EC50) lay in the range of 0.5 to 5 µM.

`CCC(C)n1ncn(-c2ccc(N3CCN(c4ccc(OC[C@@H]5CO[C@@](Cn6cccn6)(c6ccc(C#N)cc6)O5)cc4)CC3)cc2)c1=O` (stereo partly shown) [Compound 89] gave an EC50 of 0.5 to 5 µM.

`CCC(C)n1ncn(-c2ccc(N3CCN(c4ccc(OC[C@@H]5CO[C@](Cc6ccnnc6)(c6ccc(C)cc6)O5)cc4)CC3)cc2)c1=O` (stereo partly shown) [Compound 118] displayed an EC50 of 5 to 30 µM.

With `CCC(C)n1ncn(-c2ccc(N3CCN(c4ccc(OC[C@@H]5CO[C@](Cc6ccnnc6)(c6ccc(Cl)cc6)O5)cc4)CC3)cc2)c1=O` (stereo partly shown) [Compound 103], the concentration giving a half-maximal response (EC50) was 0.5 to 5 µM.

In the case of `CCC(C)n1ncn(-c2ccc(N3CCN(c4ccc(OC[C@@H]5CO[C@@](Cn6nccn6)(c6ccccc6)O5)cc4F)CC3)cc2)c1=O` (stereo partly shown) [Compound 58], the EC50 was less than 0.5 µM.

In turn, `CCC(C)n1ncn(-c2ccc(N3CCN(c4ccc(OC[C@@H]5CO[C@@](Cn6ncc(Cl)c(Cl)c6=O)(c6ccc(Cl)cc6Cl)O5)cc4)CC3)cc2)c1=O` (stereo partly shown) [Compound 42] came in with an EC50 of 5 to 30 µM.

`CCC(C)n1ncn(-c2ccc(N3CCN(c4ccc(OC[C@@H]5CO[C@@](Cn6cccn6)(c6cccc(OC)c6)O5)cc4)CC3)cc2)c1=O` (stereo partly shown) [Compound 86]: the EC50 is less than 0.5 µM.

In the case of `CC[C@H](C)n1ncn(-c2ccc(N3CCN(c4ccc(OC[C@H]5CO[C@](Cn6cccn6)(c6ccccc6)O5)cc4)CC3)cc2)c1=O` [Compound 170], the concentration for a half-maximal effect (EC50) was less than 0.5 µM.

As to `CCC(C)n1ncn(-c2ccc(N3CCN(c4ccc(OC[C@@H]5CO[C@@](Cc6ccnnc6)(c6ccccc6C(F)(F)F)O5)cc4)CC3)cc2)c1=O` (stereo partly shown) [Compound 132], the EC50 is less than 0.5 µM.

The compound `N#Cc1cc(OC[C@H]2CO[C@](Cn3nccn3)(c3ccccc3)C2)ccc1N1CCN(c2ccc(-n3cnn(CC4CCCC4)c3=O)cc2)CC1` [Compound 146] yielded an EC50 greater than 30 µM.

`CCC(C)n1ncn(-c2ccc(N3CCN(c4ccc(OC[C@@H]5CO[C@@](Cn6nccn6)(c6cc(Cl)ccc6Cl)O5)cc4)CC3)cc2)c1=O` (stereo partly shown) [Compound 33]: the EC50 is 0.5 to 5 µM.

In the case of `CCC(C)n1ncn(-c2ccc(N3CCN(c4ccc(OC[C@@H]5CO[C@@](CCl)(c6ccc(Cl)cc6Cl)O5)cc4)CC3)cc2)c1=O` (stereo partly shown) [Compound 39], the EC50 was 0.5 to 5 µM.

Take `CC[C@@H](C)n1ncn(-c2ccc(N3CCN(c4ccc(OC[C@@H]5CO[C@@](Cn6cccn6)(c6ccc(C#N)cc6C)O5)cc4)CC3)cc2)c1=O` [Compound 173]: the EC50 lay within 0.5 to 5 µM.

`CCC(C)n1ncn(-c2ccc(N3CCN(c4ccc(OC[C@@H]5CO[C@@](Cn6nccn6)(c6ccc(C#N)cc6C)O5)cc4)CC3)cc2)c1=O` (stereo partly shown) [Compound 24] came in with an EC50 of 0.5 to 5 µM.

With `CC[C@H](C)n1ncn(-c2ccc(N3CCN(c4ccc(OC[C@H]5CO[C@@](Cn6nccn6)(c6ccccc6)O5)cc4)CC3)cc2)c1=O` [Compound 185], the EC50 is less than 0.5 µM.

The compound `CCC(C)n1ncn(-c2ccc(N3CCN(c4ccc(OC[C@@H]5CO[C@@](Cc6ccnnc6)(c6cccc(C(F)(F)F)c6)O5)cc4)CC3)cc2)c1=O` (stereo partly shown) [Compound 133] registered an EC50 of less than 0.5 µM.

Still in this assay, the particulars now being: imaging and western based activity.
On to `CCC(CC)n1ncn(-c2ccc(N3CCN(c4ccc(OC[C@@H]5CO[C@@](Cn6nccn6)(c6ccccc6)O5)cc4)CC3)cc2)c1=O` [Compound 21], for which the EC50 was less than 0.5 µM.
